Key:
H9C2 cardiomyocytes = test: Quantification of phenylephrine-induced EGFP synthesis as surrogate for cell size (hypertrophy); type: cell-based, rat
Experimental: Rat H9C2 cardiomyoblasts (ATCC CRL-1446) were maintained in DMEM medium containing 10% fetal bovine serum and 1% Penicillin-Streptomycin solution (Sigma-Aldrich) and passaged when the cultures reach a confluency of 70%. Prior to experiments, H9C2 myoblasts were differentiated to cardiomyocytes by serum reduction (to 1%) and stimulation with 20 nM retinoic acid for 5 days. Differentiated H9C2 cardiomyocytes were seeded at 0.6·10^5 cells/cm^2 for all experiments.
H9C2 cardiomyocytes (0.6·10^5 cells/cm2) were infected with CMV-copGPF (MOI 10) in culture medium without serum for 24 h. H9C2 cardiomyocytes were pre-incubated with 30 μM SUL compounds under standard culture conditions for 30 min and then stimulated with phenylephrine (dose range 2·10^−5 to 1·10^−11 M) for an additional period of 24 h. Thereafter H9C2 cardiomyocytes were lysed in 100 μl soft lysis buffer (25 mM Tris, 2 mM Dithiothreitol, 2 mM EDTA, 1% Triton X-100, pH 7.4). per well and fluorescence intensity of the obtained supernatant was recorded in a CLARIOStar Plus plate reader (BMG Labtech) equipped with a FITC filter set (excitation 488 nm with 10 nm bandwidth; emission 515 with a 20 nm bandwidth).
All experiments were performed in triplicate per condition and averaged. Data obtained from two individual experiments were used for evaluation in GraphPad Prism 8.0 (GraphPad Software Inc, Ca). Average H9C2 cardiomyocyte cell size was associated to average EGFP levels using linear regression. Phenylephrine-induced EGFP synthesis was normalized, using baseline levels as 0% and maximum EGFP recordings as 100%. All datasets were normalized to vehicle controls. 4 parameter non-linear regression was used to determine the efficacy of potency of phenylephrine to induce GFP synthesis. The efficacy of SUL compounds to inhibit phenylephrine-induced EGFP synthesis was calculated as 100%-Emax, wherein Emax is the maximal effect evoked by phenylephrine.

[1] = tested on: doxorubicin-induced heart failure; test: Cardiac radical scavenging activity (ABTS-radical decolorization); type: in vivo, rat; conditions: doxorubicin rats; prophylactic or therapeutic administration of SUL-150
Experimental: (§1) The SUL-150 solution was sprayed homogeneously over standard food pellets (1.25 kg). […] Food pellets were freshly prepared weekly. With the approximation of 200 mg·kg^−1 SUL-150 in the food pellets and a daily dietary intake of 25 gram for a 350 gram rat, daily dosing of SUL-150 approximates 5 mg·day^−1. Male outbred Wistar rats of 250-300 grams (10-12 weeks old) were kept on a 12 h light/dark cycle and received a standard diet with distilled water ad libitum. Thirty rats were administered with doxorubicin (2 mg·kg^−1) weekly via intraperitoneal injection for 9 consecutive weeks and were left either untreated (standard chow diet, 10 rats), or received a diet supplemented with SUL-150 as prophylaxis (prior to the 1st doxorubicin administration, 10 rats) or therapy (starting after the 6th doxorubicin administration, 10 rats). Sham control rats (8 rats) were administered with saline weekly via intraperitoneal injection for 9 consecutive weeks and received a standard diet. All rats were subjected to cardiac function assessment 12 weeks after the first doxorubicin administration. Cardiac tissue samples were homogenized in ddH2O using a TissueRuptor II (Qiagen, Hilden, Germany) followed by sonication at 20 kHz for 3×1 min (Sonopuls 2000, Bandelin, Berlin, Germany) and centrifugation at 14000 g to pellet insoluble proteins. […]

[2] = tested on: doxorubicin-induced heart failure; test: Cardiac ATP/ADP ratio (HPLC); type: in vivo, rat; conditions: doxorubicin rats; prophylactic or therapeutic administration of SUL-150
Experimental: SUL-150 (250 mg) was dissolved in 100% EtOH (1.02 ml) and further diluted in distilled water (68.7 ml) to obtain a clear 10 mM solution. The SUL-150 solution was sprayed homogeneously over standard food pellets (1.25 kg). Food pellets were air-dried overnight. Food pellets were freshly prepared weekly. With the approximation of 200 mg·kg^−1 SUL-150 in the food pellets and a daily dietary intake of 25 gram for a 350 gram rat, daily dosing of SUL-150 approximates 5 mg·day^−1.
Male outbred Wistar rats of 250-300 grams (10-12 weeks old) were kept on a 12 h light/dark cycle and received a standard diet with distilled water ad libitum. Thirty rats were administered with doxorubicin (2 mg·kg^−1) weekly via intraperitoneal injection for 9 consecutive weeks and were left either untreated (standard chow diet, 10 rats), or received a diet supplemented with SUL-150 as prophylaxis (prior to the 1st doxorubicin administration, 10 rats) or therapy (starting after the 6th doxorubicin administration, 10 rats). […]
Cardiac tissue samples were homogenized in Tris-saturated phenol (pH 7.4) using a TissueRuptor II (Qiagen, Hilden, Germany) to extract adenosines and separated over chloroform:water (1:1 v/v) by centrifugation. […] The eluted nucleotides were detected at a wavelength of 260 nm. Nucleotide concentration of the eluate was calculated using calibration curves for each standard nucleotide peak area. […]

[3] = tested on: doxorubicin-induced heart failure; test: Cardiac oxidative stress: lipid peroxidation (TBARS); type: in vivo, rat; conditions: doxorubicin rats; SUL-150 in prophylaxis or therapeutic regime
Experimental: as §1

[4] = tested on: mitochondrial complex IV (cytochrome c oxidase); test: Respiratory complex IV activity in mitochondria isolated from H9C2 cardiomyoblasts; type: cell-based, rat
Experimental: H9C2 cardiomyoblasts were exposed to 1 μM DOX in the presence or absence of 1 μM SUL-150 under standard cell culture conditions for 24 h. Mitochondria were isolated using density gradient centrifugation using the MitoCheck® Mitochondrial Isolation Kit (Cayman Chemical #701010, Ann Arbor, MI) according to manufacturer's instructions and assessed for the activity of mitochondrial complex IV (cytochrome c oxidase) by measuring the rate of oxidation of cytochrome c, which is reflected by an […] in absorbance at 550 nm (Cayman Chemical #700990, Ann Arbor, MI).

## Cc1c(C)c2c(c(C)c1O)CC[C@](C)(C(=O)N1CCNCC1)O2 [SUL-150, (R)-(6-hydroxy-2,5,7,8-tetramethylchroman-2-yl)(piperazin-1-yl)methanone]
H9C2 cardiomyocytes; 30 μM SUL compound, calculated as 100%-Emax
  SUL EGFP Inhibition (%): 66.49%
H9C2 cardiomyocytes; preincubation with 30 μM compound
  Expression of EGFP induced by phenylephrine (FIG. 3): reduced the expression of EGFP
[1]
  Cardiac radical scavenging activity, FIG. 5B: remained unaltered
[2]
  Doxorubicin-induced reduction of cardiac ATP content (normalized for ADP), FIG. 6A: mitigated
[3]
  Cardiac lipid peroxidation products (TBARS), FIG. 5A: mitigates cardiac lipid peroxidation
[4]; H9C2 cardiomyoblasts co-incubated with doxorubicin and SUL-150, both 1 μM for 24 h
  Respiratory complex IV activity, FIG. 7: maintains complex IV activity
[4]; untreated control H9C2 cardiomyoblasts, SUL-150 1 μM for 24 h
  Respiratory complex IV activity: does not alter the activity of respiratory complex IV

Source: patent US20230330060A1, “COMPOUNDS FOR TREATMENT OF HEART FAILURE” (Sulfateq B.V., priority 2020, published 2023)
